± gives the expanded uncertainty stated by the source.
Conditions: Liquid, Frequency=8 MHz, Pulse-echo method

CCCCO [butan-1-ol]
Conditions | speed of sound [m/s]
253.15 K, 108 kPa | 1399.2 ± 0.73
253.15 K, 5065 kPa | 1423.1 ± 0.74
253.15 K, 10086 kPa | 1446.2 ± 0.74
253.15 K, 15035 kPa | 1468.3 ± 0.75
253.15 K, 20115 kPa | 1490.2 ± 0.76
253.15 K, 25062 kPa | 1510.8 ± 0.77
253.15 K, 30526 kPa | 1532.7 ± 0.78
273.15 K, 103 kPa | 1326.1 ± 0.7
273.15 K, 5008 kPa | 1351.9 ± 0.71
273.15 K, 10094 kPa | 1377.2 ± 0.72
273.15 K, 15185 kPa | 1401.4 ± 0.73
273.15 K, 20115 kPa | 1424.1 ± 0.74
273.15 K, 25088 kPa | 1446.1 ± 0.74
273.15 K, 30170 kPa | 1467.9 ± 0.75
293.15 K, 104 kPa | 1256.4 ± 0.67
293.15 K, 5067 kPa | 1284.6 ± 0.69
293.15 K, 10144 kPa | 1311.7 ± 0.69
293.15 K, 15081 kPa | 1336.9 ± 0.7
293.15 K, 20094 kPa | 1361.5 ± 0.71
293.15 K, 25087 kPa | 1385 ± 0.72
293.15 K, 30176 kPa | 1408.1 ± 0.73
313.15 K, 100 kPa | 1189.2 ± 0.65
313.15 K, 5050 kPa | 1219.2 ± 0.66
313.15 K, 10082 kPa | 1248.2 ± 0.67
313.15 K, 15167 kPa | 1276 ± 0.68
313.15 K, 20187 kPa | 1302.2 ± 0.69
313.15 K, 25473 kPa | 1328.5 ± 0.7
313.15 K, 30162 kPa | 1351 ± 0.71
333.15 K, 99 kPa | 1122.9 ± 0.62
333.15 K, 5055 kPa | 1155.5 ± 0.64
333.15 K, 10099 kPa | 1186.8 ± 0.65
333.15 K, 15058 kPa | 1215.8 ± 0.66
333.15 K, 20149 kPa | 1244.2 ± 0.67
333.15 K, 25167 kPa | 1270.8 ± 0.68
333.15 K, 30276 kPa | 1296.8 ± 0.69
353.15 K, 100 kPa | 1056.4 ± 0.6
353.15 K, 5013 kPa | 1091.6 ± 0.61
353.15 K, 10032 kPa | 1125.3 ± 0.63
353.15 K, 15066 kPa | 1157.1 ± 0.64
353.15 K, 20085 kPa | 1187 ± 0.65
353.15 K, 25075 kPa | 1215.1 ± 0.66
353.15 K, 30204 kPa | 1242.7 ± 0.67

CCO [ethanol]
Conditions | speed of sound [m/s]
253.15 K, 101 kPa | 1304.8 ± 0.73
253.15 K, 4988 kPa | 1329.9 ± 0.74
253.15 K, 10126 kPa | 1355.1 ± 0.75
253.15 K, 15056 kPa | 1378.4 ± 0.76
253.15 K, 19988 kPa | 1400.8 ± 0.77
253.15 K, 25051 kPa | 1423 ± 0.78
253.15 K, 30366 kPa | 1445.5 ± 0.79
273.15 K, 101 kPa | 1230.4 ± 0.69
273.15 K, 5095 kPa | 1258.5 ± 0.71
273.15 K, 10288 kPa | 1286.1 ± 0.72
273.15 K, 15102 kPa | 1310.6 ± 0.73
273.15 K, 19986 kPa | 1334.4 ± 0.74
273.15 K, 25007 kPa | 1357.9 ± 0.75
273.15 K, 30061 kPa | 1380.6 ± 0.76
293.15 K, 101 kPa | 1159.8 ± 0.66
293.15 K, 5052 kPa | 1190 ± 0.68
293.15 K, 9984 kPa | 1218.5 ± 0.69
293.15 K, 15097 kPa | 1246.4 ± 0.7
293.15 K, 20038 kPa | 1272.2 ± 0.71
293.15 K, 25073 kPa | 1297.3 ± 0.72
293.15 K, 30034 kPa | 1321 ± 0.73
313.15 K, 101 kPa | 1091.6 ± 0.63
313.15 K, 5015 kPa | 1124.4 ± 0.65
313.15 K, 10081 kPa | 1156 ± 0.66
313.15 K, 15057 kPa | 1185.3 ± 0.67
313.15 K, 20137 kPa | 1213.6 ± 0.69
313.15 K, 25255 kPa | 1240.7 ± 0.7
313.15 K, 30161 kPa | 1265.5 ± 0.71
333.15 K, 101 kPa | 1024.9 ± 0.6
333.15 K, 5287 kPa | 1062.5 ± 0.62
333.15 K, 10309 kPa | 1096.4 ± 0.63
333.15 K, 15132 kPa | 1126.9 ± 0.65
333.15 K, 20140 kPa | 1156.7 ± 0.66
333.15 K, 25071 kPa | 1184.6 ± 0.67
333.15 K, 30117 kPa | 1211.7 ± 0.69
353.15 K, 110 kPa | 957.67 ± 0.57
353.15 K, 5428 kPa | 1000.1 ± 0.59
353.15 K, 10327 kPa | 1036.1 ± 0.61
353.15 K, 15492 kPa | 1071.3 ± 0.62
353.15 K, 20337 kPa | 1102.3 ± 0.64
353.15 K, 25296 kPa | 1132.1 ± 0.65
353.15 K, 29944 kPa | 1158.6 ± 0.66

CO [methanol]
Conditions | speed of sound [m/s]
253.15 K, 101 kPa | 1259.4 ± 0.68
253.15 K, 5031 kPa | 1283.6 ± 0.69
253.15 K, 10064 kPa | 1307.3 ± 0.7
253.15 K, 15070 kPa | 1329.9 ± 0.71
253.15 K, 20048 kPa | 1351.5 ± 0.72
253.15 K, 25130 kPa | 1372.8 ± 0.73
253.15 K, 30260 kPa | 1393.5 ± 0.74
273.15 K, 101 kPa | 1187.3 ± 0.65
273.15 K, 5017 kPa | 1213.8 ± 0.66
273.15 K, 10158 kPa | 1240 ± 0.67
273.15 K, 15070 kPa | 1264 ± 0.68
273.15 K, 20132 kPa | 1287.6 ± 0.69
273.15 K, 25155 kPa | 1310.1 ± 0.7
273.15 K, 30074 kPa | 1331.4 ± 0.71
293.15 K, 101 kPa | 1119.1 ± 0.62
293.15 K, 5028 kPa | 1147.8 ± 0.63
293.15 K, 10032 kPa | 1175.5 ± 0.65
293.15 K, 15145 kPa | 1202.4 ± 0.66
293.15 K, 20159 kPa | 1227.6 ± 0.67
293.15 K, 25062 kPa | 1251.1 ± 0.68
293.15 K, 30276 kPa | 1275.1 ± 0.69
313.15 K, 101 kPa | 1053.2 ± 0.59
313.15 K, 5046 kPa | 1084.8 ± 0.61
313.15 K, 10127 kPa | 1115.4 ± 0.62
313.15 K, 15085 kPa | 1143.5 ± 0.63
313.15 K, 19989 kPa | 1170 ± 0.64
313.15 K, 25090 kPa | 1196.1 ± 0.65
313.15 K, 30009 kPa | 1220.1 ± 0.66
333.15 K, 101 kPa | 988.92 ± 0.57
333.15 K, 5029 kPa | 1023.7 ± 0.58
333.15 K, 10110 kPa | 1056.9 ± 0.59
333.15 K, 15215 kPa | 1088.2 ± 0.61
333.15 K, 20093 kPa | 1116.3 ± 0.62
333.15 K, 25061 kPa | 1143.5 ± 0.63
333.15 K, 30122 kPa | 1169.9 ± 0.64
353.15 K, 197 kPa | 925.58 ± 0.54
353.15 K, 5097 kPa | 963.76 ± 0.56
353.15 K, 10106 kPa | 999.62 ± 0.57
353.15 K, 15143 kPa | 1033 ± 0.58
353.15 K, 20216 kPa | 1064.5 ± 0.6
353.15 K, 25221 kPa | 1093.7 ± 0.61
353.15 K, 30092 kPa | 1120.6 ± 0.62

CCCO [propan-1-ol]
Conditions | speed of sound [m/s]
253.15 K, 102 kPa | 1368 ± 0.69
253.15 K, 5133 kPa | 1393 ± 0.7
253.15 K, 10109 kPa | 1416.6 ± 0.71
253.15 K, 15198 kPa | 1439.9 ± 0.72
253.15 K, 20092 kPa | 1461.4 ± 0.73
253.15 K, 25341 kPa | 1483.7 ± 0.74
253.15 K, 30423 kPa | 1504.6 ± 0.75
273.15 K, 101 kPa | 1293.5 ± 0.67
273.15 K, 5181 kPa | 1320.8 ± 0.68
273.15 K, 10163 kPa | 1346.3 ± 0.69
273.15 K, 15287 kPa | 1371.4 ± 0.7
273.15 K, 20261 kPa | 1394.8 ± 0.7
273.15 K, 25076 kPa | 1416.6 ± 0.71
273.15 K, 30164 kPa | 1438.9 ± 0.72
293.15 K, 105 kPa | 1222.5 ± 0.64
293.15 K, 5042 kPa | 1251.2 ± 0.65
293.15 K, 10141 kPa | 1279.3 ± 0.66
293.15 K, 15272 kPa | 1306.3 ± 0.67
293.15 K, 20136 kPa | 1330.7 ± 0.68
293.15 K, 25068 kPa | 1354.6 ± 0.69
293.15 K, 30231 kPa | 1378.5 ± 0.7
313.01 K, 30237 kPa | 1321.2 ± 0.68
313.15 K, 108 kPa | 1154.1 ± 0.61
313.15 K, 5139 kPa | 1185.8 ± 0.62
313.15 K, 10136 kPa | 1215.4 ± 0.64
313.15 K, 15128 kPa | 1243.6 ± 0.65
313.15 K, 20151 kPa | 1270.6 ± 0.66
313.15 K, 25136 kPa | 1296.1 ± 0.67
333.15 K, 101 kPa | 1086.8 ± 0.59
333.15 K, 5018 kPa | 1120.5 ± 0.6
333.15 K, 10050 kPa | 1152.8 ± 0.61
333.15 K, 15186 kPa | 1183.9 ± 0.62
333.15 K, 20183 kPa | 1212.5 ± 0.64
333.15 K, 25121 kPa | 1239.5 ± 0.65
333.15 K, 30028 kPa | 1265 ± 0.66
353.15 K, 104 kPa | 1018.9 ± 0.56
353.15 K, 5034 kPa | 1056 ± 0.58
353.15 K, 10009 kPa | 1090.8 ± 0.59
353.15 K, 15132 kPa | 1124.2 ± 0.6
353.15 K, 20099 kPa | 1154.8 ± 0.61
353.15 K, 25054 kPa | 1183.6 ± 0.62
353.15 K, 30493 kPa | 1213.6 ± 0.64

Reference: the NIST ThermoML archive (doi:10.1016/j.jct.2015.10.006)
